We go through five compounds from patent US11077098B2, “Opioid receptor ligands and methods of using and making same” (TREVENA, INC., priority 2011, dated 2021).

The test system of the test is mice. The experiment in a line: hot plate assay for antinociception in mice. Format: in vivo, mouse. Conditions: for analgesic effect in the mouse hot plate assay compared to morphine / ED50: SC; for ED50: tested thirty minutes after drug administration. As to the method:
The hot plate assay is adapted from the procedure originally described by O'Callaghan and Holtzman (JPET, 192, 497, 1975) and is commonly used to determine the potential analgesic efficacy of opioid agonists. The antinociceptive effect of the composition(s) described herein in the hot plate is expressed in % MPE (Maximum Possible Effect).
Rats (175-250 g) or mice (20-30 g) acclimated to the vivarium for at least 48 hr prior to behavioral testing. Test drugs were administered by the subcutaneous (SC) route. Animals were placed on the hot plate, which the temperature was set at 50-56° C., depending on the in vitro potency of the compound. A cutoff time of 30-60 seconds was used depending on the temperature of the hot plate so that the paws of the animal displaying analgesia, was not damaged by the heat stimulus. The cutoff time was considered a 100% response to the thermal insult. Prior to drug treatment, each animal was tested to determine the baseline response. Thirty minutes after drug administration, animals were re-tested. Dose response experiments were performed to evaluate the potency of the test compound when various doses were administered at the point when maximal analgesia is observed.
The % MPE was calculated according to the following formula: % MPE=[(Post drug latency−baseline latency)/(60 or 30−baseline latency)]×100
ED50 values were calculated from the mean % MPE values for each group using log dose-response curves by least-squares regression analysis.
A general note: Thermal pain tests record how soon the animal reacts.

Consider `c1ccc(CNCC[C@@]2(c3ccccn3)CCOC3(CCCC3)C2)cc1` [Compound 28], for which the “analgesic effect in the mouse hot plate assay compared to morphine” value was “more robust analgesic effect”. The 50% effect level (mouse hot plate) (ED50) was put at a dose of 1.2 mg/kg.

Regarding `Fc1ccc([C@]2(CCNCc3ccccc3)CCOC3(CCCC3)C2)cc1` [Compound 81, benzyl({2-[(9R)-9-(4-fluorophenyl)-6-oxaspiro[4.5]decan-9-yl]ethyl})amine], the “% MPE” value (mouse hot plate, at 10 mg/kg SC) was found to be 100% at 10.

In the case of `Cc1cccc(CNCC[C@@]2(c3ccc(F)cc3)CCOC3(CCCC3)C2)c1` [Compound 122, {2-[(9R)-9-(4-fluorophenyl)-6-oxaspiro[4.5]decan-9-yl]ethyl}[(3-methylphenyl)methyl]amine], the “analgesic effect in the mouse hot plate assay compared to morphine” value is “more robust analgesic effect”. This compound also returned an ED50 (mouse hot plate) of 1.1 mg/kg.

For `Cc1ccc(CNCC[C@@]2(c3ccc(F)cc3)CCOC3(CCCC3)C2)s1` [Compound 145], where the note is “mouse hot plate”, it took a dose of 5.9 mg/kg to reach the 50% effect level (ED50).

With `CN1CC[C@]23c4c5ccc(O)c4O[C@H]2[C@@H](O)C=C[C@H]3[C@H]1C5` [Morphine, reference compound], the “efficacy in the mouse hot plate” value (at a dose of 10 mg/kg SC) is “full efficacy”. In addition, the ED50 (mouse hot plate) came to 3.8 mg/kg.

In general, ED50 refers to the midpoint of the dose-response relation.
